“Also recorded” adds a separate entry of the source.
Assays:
Assay type in all cases: cell-based
Hela cells [1] = experiment: Cell cycle profile by FACS (DNA content), Hela
Protocol: (§1) DNA content analysis via flow cytometry. Following indicated drug treatments, cells were fixed with 70% ethanol. For analysis, cells were stained with propidium iodide, RNase A and sodium citrate. Cells were incubated at 37° C. for 30 minutes before being analyzed using a Becton Dickinson single laser three-fluorescence FACScan flow analyzer and Cell Quest software (Becton Dickinson). DNA content was acquired from 10,000 events and FlowJo software was used to process the data.

[2] = tested on: PANC1, BXPC3, MCF-7, MDA-MB-435, OVCAR 5 and 10 cells; experiment: Cell cycle profile by FACS, panel of cancer cell lines; conditions: 24 h
Protocol: as §1

[3] = tested on: U2932 B cell lymphoma cells; experiment: Cell cycle profile by FACS, U2932
Protocol: as §1

Hela cells [4] = experiment: EdU incorporation (DNA synthesis); conditions: EdU 10 μM, 12 h
Protocol: EdU incorporation. Hela cells were treated with nocodazole for 14 h after which time mitotic cells were collected by mechanical shake-off. Cells were washed twice with medium and re-plated. BDM and EdU (10 μM) (Click-IT™ EdU imaging kit, Invitrogen) were added 2 h later, when the cells were fully adherent and still in G1, and incubated for an additional 12 h. Cells were fixed and stained according to the manufacturer's protocol. Quantification of EdU incorporation was performed as described for antibody detection.

Hela cells [5] = experiment: Immunofluorescence of DNA damage foci (γ-H2AX, 53BP1, RPA)
Protocol: (§2) Immunofluorescence. Cells were grown on coverslips, treated with the indicated drugs, fixed and stained. To detect DNA damage induction and repair, antibodies against 53BP1 (Bethyl) and γ-H2AX (Upstate) were used with Alexa Fluor-conjugated secondary antibodies (Invitrogen). All cells were counter-stained with DAPI (Molecular probes). Images were captured using a 40× or 100× objective mounted on an inverted microscope (Eclipse TE2000S; Nikon) with a CCD camera (Photometrics Cascade 512F; Roper Scientific) powered by NIS Elements AR (version 3.10) software (Nikon). For quantitative analysis, individual nuclei were identified using DAPI staining and used to define region of interests (ROI), which were then transposed onto other channels. The sum intensity per nuclei from a minimum of 50 nuclei was averaged±SEM.

Hela cells [6] = experiment: Chk1 phosphorylation (Ser-345) in lysates
Protocol: Hela cells were treated for 24 or 48 h continuous treatment or of either 50 or 200 μM BDM or 24 h followed by 24 h in the absence of drugs. […] Quantification of the average fluorescence per nucleus is shown on the right. For γ-H2AX: *P=8.9×10^−28 vs. untreated 24 h; **P=2.1×10^−31 vs. untreated 24 h; †P=5.2×10^−45 vs. untreated 48 h. For 53BP1: *P=4.3×10^−20 vs. untreated 24 h; **P=4.2×10^−41 vs. untreated 24 h; †P=2.0×10^−52 vs. untreated 48 h. For RPA: *P=2.5×10^−16 vs. untreated 24 h; **P=2.8×10^−52 vs. untreated 24 h; †P=3.3×10-^58 vs. untreated 48 h. […] Total Chk1 and alpha tubulin were used to determine loading.

[7] = tested on: mouse embryonic fibroblasts (WT and TDG−/−); experiment: γ-H2AX immunofluorescence in WT and TDG−/− MEFs
Protocol: as §2

Hela cells [8] = experiment: Clonogenic assay, Hela; conditions: for colony formation relative to control (100%): washout, ~10 days
Protocol: Clonogenic assay. Hela cells were seeded into 6 well plates at a density of 1000 cells per well. Cells were treated for 24 h. Cells were then treated with and without UCN-01 (100 nM) for 3 h. All drugs were washed out and cells were left to grow for approximately 10 days. Cells were fixed using Acetic acid:methanol:H2O, (10:10:80), dried and stained with 0.4% crystal violet in 20% ethanol. Qualitative images of representative results are presented. For quantification, colonies were solubilized (1% acetic acid, 30% ethanol) and absorbance values at 595 nm were read. Values are expressed as a percentage relative to untreated cells, with untreated cells set to 100%±SD. Experiments were conducted in triplicate, three independent times. Student's two-tailed unpaired t test was conducted for statistics.

Hela cells [9] = experiment: Cell viability MTS assay, Hela; conditions: for cell viability, BDM alone: 3.125-200 μM, 48 h continuous
Protocol: (§3) Cell viability and apoptosis assays. Hela cells were seeded into 96 well plates at a density of 1500 cells per well. Cells were treated with BDM (3.125-200 μM) for 24 h. After this time cells were additionally treated either with UCN-01 (100 nM), Chk2 inhibitor (100 nM) or Gö6976 (200 nM) for an additional 24 h. MTS reagent (CellTiter 96® AQueous Proliferation Assay, Promega) was added to each well for 4 h before the absorbance values at 490 nm was read. Experiments were conducted in triplicate, 3 independent times. Data presented are the average absorbance values, relative to control±SD. For apoptosis determination, cells seeded and treated as stated above were stained with Guava Nexin Reagent® (Millipore). Analysis was conducted using the Easycyte module and Cytosoft Software® (Millipore). Experiments were conducted 3 independent times, collecting 2000 events each time. Data shown is the average±SD.

[10] = tested on: Hela cells stably expressing GFP:histone H2B; experiment: Time-lapse video microscopy of mitosis
Protocol: Time-lapse video microscopy. Hela cells stably expressing GFP:histone H2B were seeded into 6 well plates and synchronized in S phase using thymidine (2 mM). […] Where appropriate, UCN-01 (100 nM) was added to wells before being supplemented with HEPES (25 mM), layered with mineral oil (Sigma) and placed into a housing chamber which maintained the temperature at 37° C. Using a Nikon TE2000 microscope (Nikon) controlled by MetaMorph software (Molecular Devices), brightfield and fluorescent images were captured every 5 minutes for up to 48 h. Individual movies were analyzed manually and a minimum of 100 cells per treatment scored for the indicated measurements. For montages, selected frames representing different cell morphologies are presented.

Hela cells [11] = experiment: Apoptosis assay (Guava Nexin Reagent); conditions: BDM 200 μM followed by Chk1 inhibitor; p<0.01 vs. control
Protocol: as §3

Hela cells [12] = experiment: Metaphase spreads
Protocol: Metaphase spreads. Mitotic cells were collected from untreated and bendamustine at 50 μM or 200 μM+UCN-01 (100 nM) treatments. For visualizing, cells were dropped onto a glass slides and stained with DAPI. Mitotic spreads were viewed and imaged using fluorescence microscopy. Images shown are representative of those observed.

Hela cells [13] = experiment: Electron microscopy of mitotic chromosomes
Protocol: Electron microscopy. Hela cells were seeded into 6 cm dishes, synchronized with thymidine (2 mM) and treated with BDM 50 μM, 200 μM or gemcitabine (100 μM) for 18 h. Cells treated with UCN-01 (100 μM) for an addition 9 h to obtain mitotic cells were fixed with glutaraldehyde solution (3%, pH 7.4). Samples were prepared for electron microscopy analysis.

SK28 cells [14] = experiment: SK28 cell viability (MTS assay); conditions: SK28, concentration-dependent, quadruplicate
Protocol: (§4) Tests were conducted in quadruplicate.

SK28 cells [15] = experiment: SK28 clonogenic assay; conditions: SK28, concentration-dependent, quadruplicate
Protocol: as §4

[16] = 50 μM BDM 24 h, then UCN-01 100 nM

Cn1c(CCCC(=O)O)nc2cc(N(CCCl)CCCl)ccc21 [BDM, Bendamustine]
cell cycle profile (Hela cells [1]; 50 μM BDM 24 h, then another 24 h with or without BDM): displayed a normal cell cycle profile
cell cycle arrest (Hela cells [1]; 200 μM BDM, after washout or 48 h continuous): maintained after drug washout, or 48 h continuous treatment
cell cycle profile (Hela cells [1]; Hela synchronized in G1, 200 μM BDM, 24 h): arrested in S phase
cell cycle profile (Hela cells [1]; Hela synchronized in G1, 25-100 μM BDM, 24 h): accumulated as 4N DNA content indicating a G2/M delay
cell cycle arrest ([2]; 50 μM BDM): G2 arrest
cell cycle arrest ([2]; 200 μM BDM): S phase arrest
cell cycle arrest ([3]; 10 μM BDM): induced a G2 arrest
cell cycle arrest ([3]; 25 μM BDM): S phase arrest
cell cycle arrest ([3]; 50 μM BDM): induced an S phase arrest
EdU incorporation relative to untreated (100%) (Hela cells [4]; 50 μM BDM): 98.0±4.1%
EdU incorporation relative to untreated (100%) (Hela cells [4]; 200 μM BDM): 64.7±2.6%
γ-H2AX, RPA and 53BP1 foci (Hela cells [5]; 50 μM BDM 24 h, then 24 h after washout): reduced to levels comparable to untreated cells
γ-H2AX, RPA and 53BP1 foci (Hela cells [5]; 50 μM BDM, 24 h): accumulated γ-H2AX, RPA and 53BP1 foci
γ-H2AX, RPA and 53BP1 staining (Hela cells [5]; 50 μM BDM, 48 h continuous): reduced to control cells
γ-H2AX, RPA and 53BP1 foci (Hela cells [5]; 200 μM BDM 24 h, after drug removal): foci persisted after drug was removed
γ-H2AX, RPA and 53BP1 foci (Hela cells [5]; 200 μM BDM, 24 h): an increase in γ-H2AX, RPA and 53BP1
DNA damage foci (Hela cells [5]; 200 μM BDM, 48 h continuous): not reduced
53BP1, RPA and γ-H2AX nuclear foci (Hela cells [5]; dose dependence): increased in a dose-dependent manner
Chk1 phosphorylation (Ser-345) (Hela cells [6]; 50 μM BDM, 48 h): no signal was observed
Chk1 phosphorylation (Ser-345) (Hela cells [6]; 200 μM BDM, 48 h): detectable pChk1 was still present
Chk1 phosphorylation (Ser-345) (Hela cells [6]; 24 h treatment): dose-dependently phosphorylated
γ-H2AX staining, TDG−/− MEFs versus wildtype MEFs ([7]; 10 μM BDM, 24 h): increased γ-H2AX staining
repair of DNA damage, TDG−/− MEFs versus wildtype MEFs ([7]; 48 h continuous treatment): reduced ability to repair the DNA damage
colony formation relative to control (100%) (Hela cells [8]; 50 μM BDM 24 h): 87.8±11.2%
reduction in clonogenic survival (Hela cells [8]; 200 uM BDM): 95%
colony formation relative to control (100%) (Hela cells [8]; 200 μM BDM 24 h): 3.5±1.3%
cell viability, BDM alone (Hela cells [9]): did not reduce cell viability as compared to control treatment
cell viability, BDM alone (Hela cells [9]; listed as bendamustine): not particularly effective at killing Hela cells
fate of cells forced into mitosis ([10]; 50 μM BDM + Chk1 inhibition): progress through mitosis relatively normally
percentage of cells entering mitosis ([10]; 50 μM BDM, over 24 h): caused a reduction in the percentage of cells entering mitosis
mitotic index ([10]; 200 μM BDM): reduced mitotic index
fate of cells forced into mitosis ([10]; 200 μM BDM + Chk1 inhibition): majority failing to exit and instead die in mitosis
mitotic figures ([10]; 200 μM BDM + Chk1 inhibition): highly abnormal

Cn1c2ccccc2c2c3c(c4c5ccccc5n(CCC#N)c4c21)CNC3=O [Gö6976]
percentage of apoptotic cells (Hela cells [11]): exhibited an increase in the percentage of apoptotic cells

CON [MX, methoxyamine]
γ-H2AX foci, combination with BDM (Hela cells [5]; 50 μM BDM + methoxyamine 6 mM, 48 h): significantly higher levels of γ-H2AX foci than BDM alone

O=c1cc(N2CCOCC2)oc2c(-c3cccc4c3sc3ccccc34)cccc12 [NU7441]
repair of BDM-induced damage (γ-H2AX) (Hela cells [5]; 50 μM BDM + NU7441 10 μM, 48 h): did not block repair of BDM-induced damage

CN[C@@H]1C[C@H]2O[C@@](C)([C@@H]1OC)n1c3ccccc3c3c4c(c5c6ccccc6n2c5c31)C(=O)N[C@@H]4O [UCN-01]
sensitization to killing by BDM (viability) (Hela cells [9]; 200 μM BDM 24 h, then Chk1 inhibitor 24 h): viability was significantly reduced
sensitization to killing by BDM (Hela cells [9]; BDM up to 100 μM 24 h, then UCN-01 100 nM 24 h): did not sensitize
cell viability, UCN-01 alone (Hela cells [9]; UCN-01 alone, any of the assays performed): no discernable effects on cell viability
percentage of apoptotic cells (Hela cells [11]): exhibited an increase in the percentage of apoptotic cells
effect on BDM-induced arrest [10, 16]: abrogated the arrest
time to start of mitotic entry after UCN-01 addition [10, 16]: 4 h
delay at metaphase (average) ([10]; 50 μM BDM + UCN-01, controls 37.5±16.7 minutes): 89 ± 64.7 min
chromosome morphology in metaphase spreads (Hela cells [12]; BDM 50 μM + UCN-01): no obvious gross structural defects
chromosome morphology in metaphase spreads (Hela cells [12]; BDM 200 μM + UCN-01): extremely abnormal
chromosome ultra-structure (electron microscopy) (Hela cells [13]; BDM 50 μM + UCN-01): intact chromosomes were clearly visualized
chromosome ultra-structure (electron microscopy) (Hela cells [13]; BDM 200 μM + UCN-01): highly fragmented

C=CC1=C(C(=O)O)N2C(=O)[C@@H](NC(=O)/C(=N\OCC(=O)O)c3csc(N)n3)[C@H]2SC1 [cefixime, (6R,7R)-7-{[2-(2-amino-1,3-thiazol-4-yl)-2-(carboxymethoxyimino)acetyl]amino}-3-ethenyl-8-oxo-5-thia-1-azabicyclo[4.2.0]oct-2-ene-2-carboxylic acid]
cell viability (SK28 cells [14]): reduce cell viability
clonogenic capacity / colony-forming ability (SK28 cells [15]): reduce cell viability and clonogenic capacity; also recorded: reduction of clonogenic capacity

NC(=O)c1ccc2nc(-c3ccc(Oc4ccc(Cl)cc4)cc3)[nH]c2c1 [pharmacological inhibitor of Chk2]
sensitization to killing by BDM (Hela cells [9]; any BDM concentration (3.125-200 μM), Chk2 inhibitor 100 nM): did not sensitize to killing by any concentration of BDM

From patent US10220051B2, “Combination of DNA repair inhibition with bendamustine or gemcitabine in the treatment of cancer” (Institute for Cancer Research, priority 2012, dated 2019)
